Laboratory results as given in the supplement of paper PMC11821682.

Key:
Danio rerio embryo [1] = assay: LEL larval photomotor response dark phase 120 hpf
HL-60 = assay: Cell Health Index (toxicity pseudo-probability over dose series) (index 0-1); higher = more cytotoxic / cell stress;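 note: HL-60 cells exposed 4 h at 37 °C to ten threefold dilutions spanning 5 nM to 100 µM, multiparametric flow cytometry features scored by machine-learning classification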
Danio rerio embryo [2] = assay: BMC10 mortality 24-120 hpf; higher = less toxic
Danio rerio embryo [3] = assay: LEL embryonic photomotor response 24 hpf
Danio rerio embryo [4] = assay: BMC10 any morphological effect or mortality at 120 hpf; higher = less toxic

| SMILES | LEL larval photomotor response dark phase 120 hpf (Danio rerio embryo [1]) [µM] | Cell Health Index (HL-60) | BMC10 mortality 24-120 hpf (Danio rerio embryo [2]) [µM] | LEL embryonic photomotor response 24 hpf (Danio rerio embryo [3]) [µM] | BMC10 any morphological effect or mortality (Danio rerio embryo [4]) [µM] |
| --- | --- | --- | --- | --- | --- |
| COc1ccc2c(O[C@@H]3C[C@H]4C(=O)N[C@]5(C(=O)NS(=O)(=O)C6CC6)C[C@H]5/C=C\CCCCN(C)C(=O)[C@@H]4C3)cc(-c3nc(C(C)C)cs3)nc2c1C.[Na] [Simeprevir] | > 100 | 0.903 | 5.01 | > 100 | 3.6 |
| Fc1ccc(CNc2ncnc3ccc(F)cc23)cc1 [Spautin-1] | 1.23 | 0.772 | 1.17 | 3.7 | 0.511 |
| COc1ccc(CC(C)C(C)Cc2ccc(OC)c(OC)c2)cc1OC (stereo not given) [Terameprocol] | > 100 | 0.506 | 24 | 3.7 | 3.12 |
| CCN(CC)CCOc1ccc2c(c1)C(=O)c1cc(OCCN(CC)CC)ccc1-2.Cl.Cl [Tilorone] | > 100 | 0.506 | 9.79 | > 100 | 3.55 |
| O=C(Nc1ncc([N+](=O)[O-])s1)c1ccccc1O [Tizoxanide] | > 100 | 0.736 | 44.2 | > 100 | 29.5 |
| CN1CCN(CCCN2c3ccccc3Sc3ccc(C(F)(F)F)cc32)CC1.Cl.Cl [Trifluoperazine] | > 100 | 0.898 | 4.13 | 11.1 | 3.55 |
| N#CC(=C(/N)Sc1ccccc1N)/C(C#N)=C(\N)Sc1ccccc1N [U0126] | > 100 | 0.558 | 11.5 | 33.3 | 4.02 |
| S=C(N(C1=CC=CC=C1)C(/C2=C\C3=CC=C(C4=CC=CC=C4[N+]([O-])=O)O3)=O)N(C5=CC=CC=C5)C2=O [UCF 101] | > 100 | 0.876 | 4.93 | > 100 | 3.23 |
| CCOC(=O)c1c(CSc2ccccc2)n(C)c2cc(Br)c(O)c(CN(C)C)c12.Cl [Umifenovir] | > 100 | 0.791 | 6.28 | 3.7 | 3.37 |
| C[C@H]1[C@H](C)CC[C@]2(C(=O)O)CC[C@]3(C)C(=CC[C@@H]4[C@@]5(C)CC[C@H](O)C(C)(C)[C@@H]5CC[C@]43C)[C@H]12 [Ursolic acid] | > 100 | 0.434 | 3.95 | > 100 | 0.748 |
| CC(=O)c1c(O)c(C)c(O)c2c1OC1=CC(=O)C(C(C)=O)C(=O)C12C (stereo not given) [Usnic acid] | > 100 | 0.406 | 1.77 | 33.3 | 1.01 |
| C=CC(=O)N1CC/C(=C\c2ccc(F)c([N+](=O)[O-])c2)C(=O)/C(=C/c2ccc(F)c([N+](=O)[O-])c2)C1 [VLX1570] | > 100 | 0.884 | 1.38 | > 100 | 1.26 |
| C/C1=C/CC/C(C)=C/CC(C)(C)/C=C/C1=O [Zerumbone] | > 100 | 0.238 | 9.91 | 11.1 | 2.66 |
